Each structure is given as a SMILES string.

A short description of the series: Dynamic Vapor Sorption (DVS), hygroscopicity, with XRPD of the post-DVS solid. The format is physicochemical. Particulars: for mass uptake at 90% RH by DVS analysis: 25° C., DVS sorption/desorption cycles; for hygroscopic nature by DVS analysis: assessed from mass uptake at 90% RH; for solid form of the post-DVS sample (XRPD): XRPD analysis on solid retained after DVS. On the procedure:
Approximately, 10-20 mg of sample was placed into a mesh vapor sorption balance pan and loaded into a DVS Advantage dynamic vapor sorption balance by Surface Measurement Systems. The sample was subjected to a ramping profile from 40-90% relative humidity (RH) at 10% increments, maintaining the sample at each step until a stable weight had been achieved (dm/dt 0.004%, minimum step length 30 minutes, maximum step length 500 minutes) at 25° C. After completion of the sorption cycle, the sample was dried using the same procedure to 0% RH and then a second sorption cycle back to 40% RH. Two cycles were performed. The weight change during the sorption/desorption cycles were plotted, allowing for the hygroscopic nature of the sample to be determined. XRPD analysis was then carried out on any solid retained.

Turning to `CC(CCOc1cccc(CC(=O)O)c1)N(Cc1cccc(C(F)(F)F)c1Cl)CC(c1ccccc1)c1ccccc1` (stereo not shown) [amorphous material], the “mass uptake at 90% RH by DVS analysis” value is on record as “about 6.17%”, the “hygroscopic nature by DVS analysis” value is “highly hygroscopic” and the “solid form of the post-DVS sample (XRPD)” value is “remained amorphous”. Moreover, the “mass uptake at 90% RH by DVS analysis” value (listed as amorphous compound) is reported as “about 6.17%”.

Regarding `CC(CCOc1cccc(CC(=O)O)c1)N(Cc1cccc(C(F)(F)F)c1Cl)CC(c1ccccc1)c1ccccc1` (stereo not shown) [Form 6], the “mass uptake at 90% RH by DVS analysis” value is “about 2.3%”, the “hygroscopic nature by DVS analysis” value is recorded as “slightly hygroscopic” and the “solid form of the post-DVS sample (XRPD)” value is on record as “no significant change in the solid form”.

Take `CC(CCOc1cccc(CC(=O)O)c1)N(Cc1cccc(C(F)(F)F)c1Cl)CC(c1ccccc1)c1ccccc1` (stereo not shown) [Form 4]: the “mass uptake at 90% RH by DVS analysis” value is reported as “about 1.16%”, the “hygroscopic nature by DVS analysis” value is on record as “slightly hygroscopic” and the “solid form of the post-DVS sample (XRPD)” value is given as “no change in the solid form”.

On to `CC(CCOc1cccc(CC(=O)O)c1)N(Cc1cccc(C(F)(F)F)c1Cl)CC(c1ccccc1)c1ccccc1` (stereo not shown) [Form 5], for which the “mass uptake at 90% RH by DVS analysis” value is on record as “about 2.7%”, the “hygroscopic nature by DVS analysis” value is recorded as “slightly hygroscopic” and the “solid form of the post-DVS sample (XRPD)” value is reported as “partially amorphous Form 5 material”.

The record behind these values is patent US11214536B2, “Polymorphs and uses thereof” (Inspirna, Inc., priority 2017, dated 2022).
